# Test results published in patent US20220213119A1, “THIENOHETEROCYCLIC DERIVATIVE, PREPARATION METHOD THEREFOR AND MEDICAL USE THEREOF” (Jiangsu Hengrui Medicine Ca, Lid., priority 2019, published 2022).
# What was measured:
# [1] = molecular target: T1, ERK1 (Homo sapiens, UniProt P27361); experiment: ERK1 enzyme activity test (ADP-Glo Kinase Assay); type: biochemical; conditions: chemiluminescence
# T1 construct: purchased R&D 1879-KS-010
# Method: (§1) The purpose of this experiment is to detect the inhibitory ability of the compounds on the ERK1 enzyme activity and evaluate the activity of the compounds in vitro according to IC50. The ADP-Glo™ Kinase Assay Kit was used in this experiment. Under the action of enzyme, the substrate was phosphorylated and ADP was produced at the same time. The ADP-Glo Reagent was added to remove unreacted ATP in the reaction system. The kinase detection reagent was used to detect the ADP produced by the reaction. In the presence of the compound, the inhibition rate of the compound was calculated by measuring the signal value.
# Enzyme and substrate preparation: ERK1 (1879-KS-010, R&D) and substrate (AS-61777, anaspec) were prepared to be 0.75 ng/μl and 100 μM respectively in the buffer. The enzyme solution and substrate solution were then prepared into a mixed solution at a volume ratio of 2:1 for later use. ATP was diluted to 300 μM with the buffer. The compounds were dissolved in DMSO (dimethyl sulfoxide, Shanghai Titan Scientific Co., Ltd.) to prepare a stock solution with an initial concentration of 20 mM, and then Bravo was used to prepare solutions of the compounds. Finally, a 3 μL of a mixed solution of enzyme and substrate, and 1 μL of different concentrations of the compound (the initial concentration is 50 μM, 4-fold dilution) were added to each well of the 384-well plate, and the plate was incubated at 30° C. for 10 minutes, and finally 1 μL of 300 μM ATP solution was added to each well, and the plate was incubated at 30° C. for 2 hours. Then 5 μL of ADP-Glo was added, and the plate was incubated at 30° C. for 40 minutes. Then 10 μL of Kinase detection buffer was added, and the plate was incubated at 30° C. for 40 minutes. The 384-well plate was taken out and placed in a microplate reader (BMG labtech, PHERAstar FS), and the chemiluminescence was measured by the microplate reader.
# (§2) The data were processed and analyzed with Microsoft Excel, Graphpad Prism 5.
# [2] = molecular target: T2, ERK2 (Homo sapiens, UniProt P28482); experiment: ERK2 enzyme activity test (ADP-Glo Kinase Assay); type: biochemical; conditions: chemiluminescence
# T2 construct: purchased R&D 1230-KS-010
# T2 sequence (P28482 whole entry): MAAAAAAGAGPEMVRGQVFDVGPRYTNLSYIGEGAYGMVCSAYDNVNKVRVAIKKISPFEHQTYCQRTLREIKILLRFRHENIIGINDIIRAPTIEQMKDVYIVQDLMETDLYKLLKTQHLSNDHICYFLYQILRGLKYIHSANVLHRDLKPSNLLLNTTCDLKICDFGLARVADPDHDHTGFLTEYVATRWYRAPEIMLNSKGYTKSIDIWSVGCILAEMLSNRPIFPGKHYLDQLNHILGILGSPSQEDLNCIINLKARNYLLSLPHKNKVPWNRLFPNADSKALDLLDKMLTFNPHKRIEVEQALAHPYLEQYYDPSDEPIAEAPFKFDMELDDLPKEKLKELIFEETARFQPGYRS
# Method: as §1, with “ERK2” for “ERK1”
# Enzyme and substrate preparation: ERK2 (1230-KS-010, R&D) and substrate (Custom peptides, Gill Biochemical) were prepared to be 0.75 ng/μl and 1500 μM in the buffer (40 mM Tris, 20 mM MgCl2, 0.1 mg/mL BSA, 50 μM DTT). The enzyme solution and substrate solution were then prepared into a mixed solution at a volume ratio of 2:1 for later use. ATP was diluted to 500 μM with the buffer. The compounds were dissolved in DMSO (dimethyl sulfoxide, Shanghai Titan Scientific Co., Ltd.) to prepare a stock solution with an initial concentration of 20 mM, and then Bravo was used to prepare solutions of the compounds. Finally, a 3 μL of a mixed solution of enzyme and substrate, and 1 μL of different concentrations of the compound (the initial concentration is 50 μM, 4-fold dilution) were added to each well of the 384-well plate, and the plate was incubated at 30° C. for 10 minutes, and finally 1 μL of 500 μM ATP solution was added to each well, and the plate was incubated at 30° C. for 2 hours. Then 5 μL of ADP-Glo was added, and the plate was incubated at 30° C. for 40 minutes. Then 10 μL of Kinase detection buffer was added, and the plate was incubated at 30° C. for 40 minutes. The 384-well plate was taken out and placed in a microplate reader (BMG labtech, PHERAstar FS), and the chemiluminescence was measured by the microplate reader.
# as §2
# [3] = test system: Colo205 cells; experiment: In vitro proliferation inhibition test on Colo205 tumor cells (CellTiter-Glo); type: cell-based; conditions: Homo sapiens, COLO 205, 72 h; Colo205 cell proliferation, 3 days of culture, CTG
# Method: The purpose of this experiment is to test the inhibitory activity of the compounds on the proliferation of Colo205 cells (CCL-222, ATCC) in vitro. The cells were treated with different concentrations of compounds in vitro. After 3 days of culture, the cell proliferation was detected using CTG (CellTiter-Glo® Luminescent Cell Viability Assay, Promega, catalog number: G7573) reagent. The in vitro activity of the compounds was evaluated according to the IC50 value.
# In the following, taking the in vitro proliferation inhibition test method of Colo205 cells as an example, the method in the present disclosure for testing the in vitro proliferation inhibitory activity of the compounds of the present disclosure is described. This method is also applicable to, but not limited to, the in vitro proliferation inhibitory activity test on other tumor cells.
# Colo205 cells were digested, centrifuged and then resuspended. The single cell suspension was mixed well, and the density of viable cells was adjusted to 5.0×10^4 cells/ml with cell culture medium (RPMI1640+2% FBS), and 95 μl/well was added to a 96-well cell culture plate. Only 100 μl medium was added to the peripheral wells of the 96-well plate. The culture plate was incubated in an incubator for 24 hours (37° C., 5% CO2).
# The compound was dissolved in DMSO (dimethyl sulfoxide, Shanghai Titan Scientific Co., Ltd.) and prepared into a stock solution with an initial concentration of 20 mM. The initial concentration of the small molecule compound is 2 mM, and then 4-fold diluted into to 9 points, and the tenth point is DMSO. Another 96-well plate was taken, 90 μl of cell culture medium (RPMI1640+2% FBS) was added to each well, then 10 μl of different concentrations of the test sample was added to each well, the mixture was mixed well, and then 5 μl of different concentrations of the test sample was added to the cell culture plate, and each sample has two duplicate holes. The culture plate was incubated in the incubator for 3 days (37° C., 5% CO2). The 96-well cell culture plate was taken out, 50 μl CTG solution was added to each well, and the plate was incubated for 10 minutes at room temperature. In a microplate reader (BMG labtech, PHERAstar FS), chemiluminescence was measured with the microplate reader.
# as §2
# [4] = Pharmacokinetics assay in mice; type: in vivo; conditions: mouse, po, C57 mice (female), intragastric, 2 mg/kg, plasma; for Vd/F: read-out: Apparent distribution volume Vz/F; for AUC: read-out: Area under curve AUC; for CL/F: read-out: Clearance CLz/F; for half-life: read-out: Half Life T1/2 (converted); for Cmax: read-out: Plasma Concentration Cmax; for MRT: read-out: Residence Time MRT
# Method: Mice were used as the test animal. The drug concentration in plasma at different time points was determined by LC/MS/MS method after administration of compound 3-P2, compound 4-P2, compound 9-P2, compound 10-P2, compound 12 and compound 15. The pharmacokinetic behavior of the compounds of the present disclosure in mice was studied, and the pharmacokinetic characteristics were evaluated.
# 54 of C57 mice (female) were equally divided into 6 groups, which were purchased from Shanghai Jiesijie Laboratory Animal Co., Ltd., with the animal production license number: SOCK (Shanghai) 2013-0006.
# A certain amount of compound was weighted, followed by the addition of 5% volume of DMSO and 5% Tween 80 to dissolve it, then followed by the addition of 90% normal saline to prepare a colorless and clear solution of 0.1 mg/mL.
# After an overnight fast, C57 mice were intragastrically administered the test compound at an administration dose of 2 mg/kg and an administration volume of 0.2 ml/10 g.
# The mice were intragastrically administered the test compounds. 0.1mL of blood was taken before the administration and at 0.25, 0.5, 1.0, 2.0, 4.0, 6.0, 8.0, 11.0, 24.0 hours after the administration. The blood was placed in a heparinized test tube, and centrifuged at 3500 rpm for 10 minutes. The plasma was separated and stored at −20° C.
# The content of the test compound in the plasma of mice after […] administration of the test compound at different concentrations was determined: 25 μl of mouse plasma at each time point after the administration was taken, followed by the addition of 50 μl of the internal standard camptothecin solution (100 ng/mL) and 200 μl of acetonitrile. The resulting solution was vortex-mixed for 5 minutes, and centrifuged for 10 minutes (4000 rpm). 4μl of the supernatant was taken from the plasma samples for LC/MS/MS analysis.
# T1 sequence (P27361 whole entry): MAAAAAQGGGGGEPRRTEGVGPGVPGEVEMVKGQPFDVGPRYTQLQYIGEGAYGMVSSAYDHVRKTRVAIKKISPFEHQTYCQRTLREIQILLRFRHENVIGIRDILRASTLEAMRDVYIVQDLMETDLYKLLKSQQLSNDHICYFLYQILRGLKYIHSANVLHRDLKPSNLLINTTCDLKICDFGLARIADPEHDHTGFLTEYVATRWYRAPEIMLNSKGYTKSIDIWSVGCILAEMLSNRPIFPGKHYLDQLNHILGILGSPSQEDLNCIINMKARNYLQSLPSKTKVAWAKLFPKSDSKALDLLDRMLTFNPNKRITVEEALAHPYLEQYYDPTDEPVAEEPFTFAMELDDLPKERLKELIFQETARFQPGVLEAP
SMILES,IC50 [1] [nM],IC50 [2] [nM],IC50 [3] [nM],Vd/F [4] [L/kg],AUC [4] [ng·h/mL],CL/F [4] [mL/min/kg],half-life [4] [h],Cmax [4] [ng/mL],MRT [4] [h]
"COc1cc(F)cc([C@@H](CO)NC(=O)[C@@H](C)N2CCc3sc(-c4nc(NC5CCOCC5)ncc4Cl)cc3C2=O)c1 [Example 9-P2, (R)-2-(2-(5-Chloro-2-((tetrahydro-2H-pyran-4-yl)amino)pyrimidin-4-yl)-4-oxo-6,7-dihydrothieno[3,2-c]pyridin-5(4H)-yl)-N-((S)-1-(3-fluoro-5-methoxyphenyl)-2-hydroxyethyl)prop ionamide]",19,3,18,7.14,1820,18.4,4.49,1480,1.85
"COc1cc(F)cc([C@@H](CO)NC(=O)[C@@H](C)N2CCc3sc(-c4ccnc(NC5CCOCC5)n4)cc3C2=O)c1 [Example 11, (R)-N-((S)-1-(3-Fluoro-5-methoxyphenyl)-2-hydroxyethyl)-2-(4-oxo-2-(2-((tetrahydro-2H-pyran-4-yl)amino)pyrimidin-4-yl)-6,7-dihydrothieno[3,2-c]pyridin-5(4H)-yl)-propionamide]",5,2,16,,,,,,
"COc1cc(F)cc([C@@H](CO)NC(=O)[C@@H](C)N2CCc3sc(-c4nc(N[C@@H](C)CO)ncc4Cl)cc3C2=O)c1 [Example 12, (R)-2-(2-(5-Chloro-2-(((S)-1-hydroxypropan-2-yl)amino)pyrimidin-4-yl)-4-oxo-6,7-dihydrothieno[3,2-c]pyridin-5(4H)-yl)-N-((S)-1-(3-fluoro-5-methoxyphenyl)-2-hydroxyethyl)prop ionamide]",24,2,5,4.77,1600,20.8,2.65,1480,1.05
"COc1cc(F)cc([C@@H](CO)NC(=O)[C@@H](C)N2CCc3sc(-c4nc(NC5CCOCC5)ncc4C)cc3C2=O)c1 [Example 16, (R)-N-((S)-1-(3-Fluoro-5-methoxyphenyl)-2-hydroxyethyl)-2-(2-(5-methyl-2-((tetrahydro-2 H-pyran-4-yl)amino)pyrimidin-4-yl)-4-oxo-6,7-dihydrothieno[3,2-c]pyridin-5-(4H)-yl)prop ionamide]",3,1,,,,,,,

# Continued, values first:
IC50 [1] [nM],IC50 [2] [nM],IC50 [3] [nM],Vd/F [4] [L/kg],AUC [4] [ng·h/mL],CL/F [4] [mL/min/kg],half-life [4] [h],Cmax [4] [ng/mL],MRT [4] [h],SMILES
32,5,50,1.99,1830,18.2,1.26,1000,1.64,"COc1cc(F)cc([C@@H](CO)NC(=O)[C@@H](C)N2CCc3sc(-c4nc(Nc5ccnn5C)ncc4C)cc3C2=O)c1 [Example 10-P2, (R)-N-((S)-1-(3-Fluoro-5-methoxyphenyl)-2-hydroxyethyl)-2-(2-(5-methyl-2-((1-methyl-1 H-pyrazol-5-yl)amino)pyrimidin-4-yl)-4-oxo-6,7-dihydrothieno[3,2-c]pyridin-5(4H)-yl)pro pionamide]"
27,6,14,,,,,,,"COc1cc(F)cc([C@@H](CO)NC(=O)[C@@H](C)N2CCc3sc(-c4nc(Nc5ccnn5C)ncc4Cl)cc3C2=O)c1 [Example 14, (R)-2-(2-(5-Chloro-2-((1-methyl-1H-pyrazol-5-yl)amino)pyrimidin-4-yl)-4-oxo-6,7-dihydrothieno[3,2-c]pyridin-5(4H)-yl)-N-((S)-1-(3-fluoro-5-methoxyphenyl)-2-hydroxyethyl)prop ionamide]"
12,2,17,,,,,,,"COc1cc(F)cc([C@@H](CO)NC(=O)[C@@H](C)N2CCc3sc(-c4nc(N[C@@H](C)CO)ncc4C)cc3C2=O)c1 [Example 17, (R)-N-((S)-1-(3-Fluoro-5-methoxyphenyl)-2-hydroxyethyl)-2-(2-(2-(((S)-1-hydroxypropan-2-yl)amino)-5-methylpyrimidin-4-yl)-4-oxo-6,7-dihydrothieno[3,2-c]pyridin-5(4H)-yl)prop ionamide]"
